The text below walks through data of patent publication US8008501B2, “Quinoline compounds and their uses” (Rigel Pharmaceuticals, Inc., priority 2003, dated 2011).

Test [1] concerns cultured human mast cells (CHMC). The test can be described thus: CHMC low cell density IgE activation: tryptase assay. It counts as cell-based. Particulars: anti-IgE stimulated, tryptase release, first symbol of cell. As for the experimental part: Inhibition of degranulation was measured at both low and high cell density by quantifying the release of the granule specific factors tryptase, histamine and hexosaminidase. Inhibition of release and/or synthesis of lipid mediators was assessed by measuring the release of leukotriene LTC4 and inhibition of release and/or synthesis of cytokines was monitored by quantifying TNF-α, IL-6 and IL-13. Tryptase and hexosaminidase were quantified using fluorogenic substrates as described in their respective examples. Histamine, TNFα, IL-6, IL-13 and LTC4 were quantified using the following commercial ELISA kits: histamine (Immunotech #2015, Beckman Coulter), TNFα (Biosource #KHC3011), IL-6 (Biosource #KMC0061), IL-13 (Biosource #KHC0132) and LTC4 (Cayman Chemical #520211). The protocols of the various assays are provided below.
7.7.2 CHMC Low Cell Density IgE Activation: Tryptase and LTC4 Assays
To duplicate 96-well U-bottom plates (Costar 3799) add 65 ul of compound dilutions or control samples that have been prepared in MT [137 mM NaCl, 2.7 mM KCl, 1.8 mM CaCl2, 1.0 mM MgCl2, 5.6 mM Glucose, 20 mM Hepes (pH 7.4), 0.1% Bovine Serum Albumin, (Sigma A4503)] containing 2% MeOH and 1% DMSO. Pellet CHMC cells (980 rpm, 10 min) and resuspend in pre-warmed MT. Add 65 ul of cells to each 96-well plate. Depending on the degranulation activity for each particular CHMC donor, load 1000-1500 cells/well. Mix four times followed by a 1 hr incubation at 37° C. During the 1 hr incubation, prepare 6× anti-IgE solution [rabbit anti-human IgE (1 mg/ml, Bethyl Laboratories A80-109A) diluted 1:167 in MT buffer]. Stimulate cells by adding 25 ul of 6× anti-IgE solution to the appropriate plates. Add 25 ul MT to un-stimulated control wells. Mix twice following addition of the anti-IgE. Incubate at 37° C. for 30 minutes. During the 30 minute incubation, dilute the 20 mM tryptase substrate stock solution [(Z-Ala-Lys-Arg-AMC2TFA; Enzyme Systems Products, #AMC-246)] 1:2000 in tryptase assay buffer [0.1 M Hepes (pH 7.5), 10% w/v Glycerol, 10 uM Heparin (Sigma H-4898) 0.01% NaN3]. Spin plates at 1000 rpm for 10 min to pellet cells. Transfer 25 ul of supernatant to a 96-well black bottom plate and add 100 ul of freshly diluted tryptase substrate solution to each well. Incubate plates at room temperature for 30 min. Read the […] of the plates at 355 nm/460 nm on a spectrophotometric plate reader.

The test system is the same in test [2]. Briefly: CHMC low cell density ionomycin activation: tryptase assay. The settings on record: ionomycin stimulated, tryptase release. The test is classed as cell-based. On the procedure: To confirm that many of the quinoline compounds of the invention exert their inhibitory activity by blocking or inhibiting the early IgE receptor signal transduction cascade, many of the compounds were tested in cellular assays for ionomycin-induced degranulation, as described below.
7.8.1 CHMC Low Cell Density Ionomycin Activation: Tryptase Assay
Assays for ionomycin-induced mast cell degranulation were carried out as described for the CHMC Low Density IgE Activation assays (Section 7.7.2, supra), with the exception that during the 1 hour incubation, 6× ionomycin solution [5 mM ionomycin (Signma 1-0634) in MeOH (stock) diluted 1:416.7 in MT buffer ([…])] was prepared and cells were stimulated by adding 25 μl of the 6× ionomycin solution to the appropriate plates.

Test [3] concerns mouse model of passive cutaneous anaphylaxis (PCA). The settings on record: i.p., 30 minutes pretreatment time.
Protocol: This model provides a direct measure of IgE-induced degranulation of tissue mast cells. In this model, IgE primed animals are exposed to an allergen challenge and the change in permeability of dermal vasculature that results from histamine release from mast cells is measured by change in the amount of dye leakage into surrounding tissue. Inhibition of mediator release by compounds that modulate mast cell degranulation is easily measured by extracting the dye from the tissue.
In the PCA assay mice are passively sensitized by intradermal injection with anti-dinitrophenol (DNP) IgE antibodies (Day-1). At predetermined times (5-60 minutes prior to challenge), animals are treated with the test agent (Day 0). The modulatory effect of the agent on cutaneous mast cell degranulation is measured following intravenous injection of DNP conjugated to human serum albumin (HSA-DNP), together with Evans blue dye. The resulting cross-linking of the IgE receptor and subsequent mast cell degranulation-induced increase in vascular permeability is determined by measuring the amount of dye extravasation into the tissue. Dye is extracted from the tissue by formamide, and the absorbance of this extract is read at 620 nm. The inhibitory effect of drug treatment is reported as the percent inhibition compared to vehicle treatment, that is, the percent reduction in A620. […]
Setting [4] is: second symbol of cell, read-out: CHMC -IONO.
The mark [5] stands for this setting: Homo sapiens, Mast cell, second symbol of cell, read-out: CHMC -IONO.

Where two headings read alike, the source gives them in different places.

On to `Cc1noc(C)c1NC(=O)c1cc(-c2ccccc2)nc2ccccc12` [Compound 1], for which the IC50 in test [1] and in test [2] (setting [4]) was greater than 10 µM each time. As to `Cc1cc(NC(=O)c2c(-c3ccccc3)noc2C)c2ccccc2n1` [Compound 3], the IC50 in test [1] is greater than 10 µM. With `Cc1onc(-c2ccccc2)c1C(=O)Oc1ccnc2ccccc12` [Compound 5], the IC50 in test [1] and in test [2] (setting [4]) was no more than 10 µM throughout. On to `Cc1onc(-c2ccccc2)c1C(=O)Oc1ccnc2cc(Cl)ccc12` [Compound 7], for which the IC50 in test [1] and in test [2] (setting [4]) was no more than 10 µM in each case. On to `Cc1cc(OC(=O)c2c(-c3ccccc3)noc2C)c2ccccc2n1` [Compound 9, 5-Methyl-3-phenyl-4-isoxazolecarboxylic acid, 2-methyl-4-quinolinyl Ester], for which the IC50 in test [1] (Homo sapiens, Mast cell) was no more than 10 µM; in test [2] (setting [5]), no more than 10 µM. For `Cc1cc(OC(=O)c2c(-c3ccccc3)noc2C)c2cc(F)ccc2n1` [Compound 11], the IC50 in test [1] and in test [2] (setting [4]) was no more than 10 µM each time. As to `Cc1onc(-c2ccccc2)c1C(=O)Oc1ccnc2cc(C(F)(F)F)ccc12` [Compound 13], the IC50 in test [1] and in test [2] (setting [4]) was no more than 10 µM each time. As to `Cc1onc(-c2ccccc2)c1C(=O)Oc1ccnc2c(C(F)(F)F)cccc12` [Compound 15], in test [1], the IC50 was no more than 10 µM. As for `CCOC(=O)c1cnc2cc(C(F)(F)F)ccc2c1OC(=O)c1c(-c2ccccc2)noc1C` [Compound 17], the IC50 in test [1] and in test [2] (setting [4]) was no more than 10 µM each time.

On to `CCOC(=O)c1cc(OC(=O)c2c(-c3ccccc3)noc2C)c2ccccc2n1` [Compound 19], for which the IC50 in test [1] and in test [2] (setting [4]) was no more than 10 µM in each case. On to `Cc1cc(OC(=O)c2c(C)noc2C)c2cc(F)ccc2n1` [Compound 21], for which the IC50 in test [1] was no more than 10 µM. Regarding `Cc1cc(OC(=O)c2c(-c3c(F)cccc3Cl)noc2C)c2cc(F)ccc2n1` [Compound 23], in test [1], the IC50 is no more than 10 µM. With `Cc1cc(OC(=O)c2c(-c3ccccc3Cl)noc2C)c2cc(F)ccc2n1` [Compound 25], the IC50 in test [1] and in test [2] (setting [4]) was no more than 10 µM throughout.

`Cc1onc(-c2ccccc2)c1C(=O)Oc1cc(C(F)(F)F)nc2ccc(OC(F)(F)F)cc12` [Compound 27]: the IC50 in test [1] and in test [2] (setting [4]) was no more than 10 µM throughout. For `Cc1noc(C)c1C(=O)Oc1cc(C(F)(F)F)nc2ccc(OC(F)(F)F)cc12` [Compound 29], the IC50 in test [1] and in test [2] (setting [4]) was no more than 10 µM each time. As for `Cc1onc(-c2c(F)cccc2Cl)c1C(=O)Oc1cc(C(F)(F)F)nc2ccc(OC(F)(F)F)cc12` [Compound 31], the IC50 in test [1] and in test [2] (setting [4]) was no more than 10 µM throughout. Take `Cc1onc(-c2ccccc2Cl)c1C(=O)Oc1cc(C(F)(F)F)nc2ccc(OC(F)(F)F)cc12` [Compound 33]: the IC50 in test [1] was no more than 10 µM. Turning to `Cc1onc(-c2ccccc2)c1C(=O)Nc1ccnc2cc(C(F)(F)F)ccc12` [Compound 35, 5-Methyl-3-phenyl-N-(7-trifluoromethyl-4-quinolinyl)-4-isoxazolecarboxamide], the IC50 in test [1] (Homo sapiens, Mast cell) is no more than 10 µM; in test [2] (setting [5]), no more than 10 µM. `Cc1noc(C)c1C(=O)Nc1ccnc2cc(C(F)(F)F)ccc12` [Compound 37]: the IC50 in test [1] and in test [2] (setting [4]) was greater than 10 µM throughout. For `Cc1onc(-c2c(F)cccc2Cl)c1C(=O)Nc1ccnc2cc(C(F)(F)F)ccc12` [Compound 39], the results for the IC50 in test [1] and in test [2] (read-out: CHMC -IONO (number printed instead of class symbol)) were no more than 10 µM and 30 µM, respectively.

On to `Cc1onc(-c2ccccc2Cl)c1C(=O)Nc1ccnc2cc(C(F)(F)F)ccc12` [Compound 41], for which the IC50 in test [1] and in test [2] (setting [4]) was greater than 10 µM each time. For `Cc1onc(-c2ccccc2)c1NC(=O)c1cc(Cl)nc2ccc(Br)cc12` [Compound 43, 6-bromo-2-chloro-N-(5-methyl-3-phenylisoxazol-4-yl)-4-quinolinecarboxamide], the IC50 in test [1] (Homo sapiens, Mast cell) is no more than 10 µM; in test [2] (setting [5]) it was greater than 10 µM. For `Cc1noc(C)c1NC(=O)c1cc(Cl)nc2ccc(Br)cc12` [Compound 45], the IC50 in test [1] is no more than 10 µM; in test [2] (setting [4]), greater than 10 µM. Regarding `Cc1cc(C(=O)Nc2c(-c3ccccc3)noc2C)c2cc(F)ccc2n1` [Compound 47, 6-Fluoro-2-methyl-N-(5-methyl-3-phenylisoxazol-4-yl)-4-quinolinecarboxamide], the IC50 is no more than 10 µM in test [1] (Homo sapiens, Mast cell) and greater than 10 µM in test [2] (setting [5]). For the molecule `Cc1cc(C(=O)Nc2c(C)noc2C)c2cc(F)ccc2n1` [Compound 49], the IC50 in test [1] is no more than 10 µM; in test [2] (setting [4]), greater than 10 µM. `Cc1onc(-c2ccccc2)c1C(=O)Oc1ccnc2ccc(OC(F)(F)F)cc12` [Compound 51]: the IC50 in test [1] and in test [2] (setting [4]) was no more than 10 µM in each case. Consider `Cc1onc(-c2ccccc2Cl)c1C(=O)Oc1ccnc2ccc(OC(F)(F)F)cc12` [Compound 53], for which the IC50 in test [1] and in test [2] (setting [4]) was no more than 10 µM each time.

Regarding `Cc1onc(-c2c(F)cccc2Cl)c1C(=O)Oc1ccnc2ccc(OC(F)(F)F)cc12` [Compound 57], the IC50 in test [1] is no more than 10 µM; in test [2] (setting [4]), greater than 10 µM. The like results for `Cc1onc(-c2ccccc2)c1NC(=O)c1cc(-c2ccccc2)nc2ccccc12` [Compound 61] were, in that order, greater than 10 µM and greater than 10 µM. On to `Cc1onc(-c2ccccc2)c1NC(=O)c1ccnc2ccccc12` [Compound 63], for which the IC50 in test [1] and in test [2] (setting [4]) was greater than 10 µM throughout.

`Cc1onc(-c2ccccc2)c1NC(=O)c1cc(Nc2ccc3[nH]ccc3c2)nc2ccc(Br)cc12` [Compound 65]: the results for the IC50 in test [1] and in test [2] (setting [4]) were no more than 10 µM and greater than 10 µM, respectively.

Consider `CNc1cc(NC(=O)c2c(-c3ccccc3)noc2C)c2cc(Br)ccc2n1` [Compound 67], for which the IC50 is no more than 10 µM in test [1] and greater than 10 µM in test [2] (setting [4]). With `Cc1onc(-c2ccccc2)c1NC(=O)c1cc(Nc2cccc(O)c2)nc2ccc(Br)cc12` [Compound 71, 6-Bromo-2-(3-hydroxyphenyl)amino-N-(5-methyl-3-phenylisoxazol-4-yl)-4-quinolinecarboxamide], the IC50 in test [1] (Homo sapiens, Mast cell) is no more than 10 µM; in test [2] (setting [5]), no more than 10 µM.

For `CN1CCC(=C2c3ccccc3C=Cc3ccccc32)CC1` [Cyproheptadine, cyproheptadine], the “inhibition of the PCA response” value in test [3] (8 mg/kg, n=23 experiments) is given as 61% +/−4. As to `CN(C)CCOC(c1ccccc1)c1ccccc1` [diphenhydramine], the “inhibition of the PCA response” value in test [3] (highest dose 50 mg/kg) is “up to 86%”.
